Data on three compounds can be found in patent US12448388B2, “PRMT5 inhibitors and uses thereof” (Gilead Sciences, Inc., priority 2023, dated 2025).

Data set [1] concerns Symmetric Di-methyl Arginine (SDMA) signal (PRMT5 inhibition) in HCT116 MTAP-deleted cells. Kind of data set: Symmetric di-methyl arginine image-based high content screen assay (SDMA assay), HCT116 MTAP-deleted. Format: cell-based. The settings on record: for pEC50: Homo sapiens, HCT-116, HCT116 MTAP-deleted, class symbols. An outline of the steps:
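HCT116 WT and MTAP-deleted cells (800/well, RPMI 1640 + 10% FBS) treated with compound 3 days at 37 °C; formalin-fixed, stained with anti-SDMA antibody/Alexa 488 plus DAPI. Mean SDMA intensity per DAPI-defined cell imaged; EC50 from 4-parameter logistic fit.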

For data set [2], the system named is LU99 (lung, giant cell carcinoma; MTAP-Deleted). Description: In vitro cell viability assay (CellTiter-Glo, 9 days), LU99. The format is cell-based. Conditions: Homo sapiens, Lu-99, 216 h, 9-day treatment. The method, then:
Some Compounds of the Disclosure were tested in Calu-6 (Vendor: ATCC; Cat #HTB-56; Description: lung, adenocarcinoma), LU99 (Vendor: JCRB; Cat #JCRB0080; Description: lung, giant cell carcinoma), SW780 (Vendor: ATCC; Cat #CRL-2169; Description: bladder, urothelial carcinoma), and BxPC-3 (Vendor: ATCC; Cat #CRL-1687; Description: pancreas, adenocarcinoma) cellular viability assays according to the general protocol. Seeded cells into 96-well plate and incubated overnight. Seeded an additional 10 wells per cell line in an additional 96-well plate for assessing Time Zero luminescence and incubated overnight. To treatment plates, added compounds into each well using Tecan D300e dispenser (nine three-fold dilutions starting at […]) and incubated for 9 days. Time Zero (no compound treatment, luminescence assessed on day 1) and 9-day treatment (luminescence assessed on day 10) plates were assessed using the same CellTiter-Glo® substrate protocol. Thawed CellTiter-Glo® Buffer and lyophilized CellTiter-Glo® substrate and equilibrated to room temperature prior to use. Transferred 100 ml CellTiter-Glo® Buffer into amber bottle containing CellTiter-Glo® substrate to reconstitute the lyophilized enzyme/substrate mixture. For Time Zero and 9-day treatment plates, removed all plating media. Added 100 μl fresh media/well. Added 100 μl CellTiter-Glo® Reagent per well. Mixed contents for 10 min on an orbital shaker to lyse cells. Recorded luminescence with Perkin Elmer Envision 2105 machine. Analyzed the data with GraphPad software.

The nature of data set [3]: PK data (IV/PO) in Sprague-Dawley rat. Format: in vivo. Conditions: Sprague-Dawley, rat, in vivo; for half-life / clearance / Vd: iv, 0.33 mg/kg, IV 0.33 mg/Kg; for clearance: read-out: Observed CL (converted); for Vd: read-out: Vss; for bioavailability: po, 1.66 mg/kg, PO 1.66 mg/Kg.
The next data set has as its target T1, hERG ion channel (Homo sapiens, UniProt Q12809).
T1 construct: host or cells: HEK293
Description: hERG assay (automated patch clamp, QPatch HT). Format: cell-based. Conditions: HEK293 hERG, * = accurate hERG measurement may be limited by compound solubility. Here is the method:
Cell lines and cell culture: The HEK293 cell line stably expressing the hERG ion channel was provided from Charles River laboratories. Cells were maintained in tissue culture incubators per Charles River Laboratories SOP. Stocks were maintained in cryogenic storage. HEK293 cells were stably transfected with hERG cDNA.
Automated Patch Clamp Procedures: In preparation for a recording session, intracellular solution was loaded into the intracellular compartments of the QPlate and cell suspension was pipetted into the extracellular compartments. After establishment of a whole-cell configuration, membrane currents were recorded using up to 48 parallel patch clamp amplifiers in the QPatch HT® system. The current records were sampled at 2000 Hz and low-pass Bessel filtered at 400 Hz.
Valid whole-cell recordings met the following criteria: • 1. Membrane resistance ≥200 MΩ. • 2. Leak current 25% channel current or subtracted.
hERG Test Procedures: Onset and block of hERG current was measured using a stimulus voltage pattern consisting of a 500 ms prepulse to −40 mV (leakage subtraction), a 2-second activating pulse to +40 mV followed by a 2-second test pulse to −40 mV. The pulse pattern was repeated continuously at 10 s intervals from a holding potential of −80 mV. Peak tail current was measured during the −40 mV test pulse. Leakage current was calculated from the current amplitude evoked by the −40 mV prepulse and subtracted from the total membrane current record.
Data Analysis: Data acquisition and analysis were performed using the QPatch Assay Software (Sophion Bioscience A/S, Denmark). Steady state was defined by the limiting constant rate of change with time (linear time dependence). The steady state before and after test article application were used to calculate the percentage of current inhibited at each concentration. Run down, a time-dependent reduction of current amplitude, may be compensated for in the QPatch Assay Software using standard system tools. Concentration-response data was fit to an equation of the following form: […]
Where [Test] is the concentration of test compound, IC50 is the concentration of the test compound producing half-maximal inhibition, N is the Hill coefficient and % Block is the percentage of current inhibited at each concentration of the test article. Nonlinear least squares fits will be solved with the Solver add-in for Excel 2000 or later (Microsoft, Redmond, WA).

Where [4] appears, read: HCT116 WT vs HCT116 MTAP-deleted.

The structures appear in SMILES notation. pEC50, pIC50: −log10 of the molar value.

T1 sequence (Q12809 whole entry): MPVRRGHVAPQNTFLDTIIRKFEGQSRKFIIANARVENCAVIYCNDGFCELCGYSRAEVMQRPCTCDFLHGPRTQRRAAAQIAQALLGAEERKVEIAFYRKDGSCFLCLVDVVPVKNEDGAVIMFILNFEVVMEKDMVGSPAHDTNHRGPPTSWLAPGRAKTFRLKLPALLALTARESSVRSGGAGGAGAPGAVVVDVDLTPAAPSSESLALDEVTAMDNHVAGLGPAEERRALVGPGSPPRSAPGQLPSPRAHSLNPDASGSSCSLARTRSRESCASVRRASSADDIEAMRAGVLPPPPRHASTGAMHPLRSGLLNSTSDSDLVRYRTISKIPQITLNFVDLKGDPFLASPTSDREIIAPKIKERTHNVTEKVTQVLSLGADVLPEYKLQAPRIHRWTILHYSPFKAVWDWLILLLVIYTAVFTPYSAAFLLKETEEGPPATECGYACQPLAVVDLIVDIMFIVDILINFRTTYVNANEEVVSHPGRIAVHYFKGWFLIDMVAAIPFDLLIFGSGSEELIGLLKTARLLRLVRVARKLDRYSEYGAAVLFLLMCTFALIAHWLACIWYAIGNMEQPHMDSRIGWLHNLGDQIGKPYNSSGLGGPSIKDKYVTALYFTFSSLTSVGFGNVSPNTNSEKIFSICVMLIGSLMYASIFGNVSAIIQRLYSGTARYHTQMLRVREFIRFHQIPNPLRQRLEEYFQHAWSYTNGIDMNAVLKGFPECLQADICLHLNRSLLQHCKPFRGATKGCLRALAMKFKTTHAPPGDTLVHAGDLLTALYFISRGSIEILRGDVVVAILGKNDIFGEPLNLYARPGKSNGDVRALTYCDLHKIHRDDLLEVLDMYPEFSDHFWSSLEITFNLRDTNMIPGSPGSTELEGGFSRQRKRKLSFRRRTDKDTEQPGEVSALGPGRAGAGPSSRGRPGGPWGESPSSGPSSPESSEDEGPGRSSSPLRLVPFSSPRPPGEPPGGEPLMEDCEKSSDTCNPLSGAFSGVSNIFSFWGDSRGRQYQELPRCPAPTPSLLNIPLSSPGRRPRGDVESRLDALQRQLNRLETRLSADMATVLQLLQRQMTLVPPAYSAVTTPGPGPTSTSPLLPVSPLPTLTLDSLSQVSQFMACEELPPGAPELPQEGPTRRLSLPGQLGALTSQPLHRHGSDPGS

Take `Nc1nc2cnc(C(=O)N3CCC[C@@H]4Oc5cc(C(F)(F)F)cc(F)c5[C@@H]43)cc2n2cncc12` (single isomer, unassigned) [Fg-53]: in data set [1] (setting [4]), the EC50 selectivity worked out at 85. Further, the pEC50 in data set [1] is not below 9.00. This compound showed a GI50 in data set [2] of 6 nM. Further, in data set [3], the half-life was 4.6 h, the clearance was 7.33 mL/min/kg, the Vd was determined as 2.45 L/kg and the bioavailability is 120%. The same compound gave a pIC50 against hERG ion channel of 5.00.
In data set [1] (setting [4]), `Nc1nc2cnc(C(=O)N3CCC[C@@H]4Oc5cc(OC(F)(F)F)cc(F)c5[C@@H]43)cc2n2cncc12` (single isomer, unassigned) [Fg-55] registered an EC50 selectivity of 114. Further, the pEC50 in data set [1] was not below 9.00. The compound further came in with a GI50 in data set [2] of 10 nM. Moreover, in data set [3], the half-life is 6 h, the clearance is 3.5 mL/min/kg, the Vd amounted to 1.73 L/kg and the bioavailability came out at 99%. This compound also had a pIC50 at hERG ion channel of 5.21.
For `Nc1nc2ccc(C(=O)N3CCC[C@@H]4Oc5cc(C(F)(F)F)ccc5[C@@H]43)cc2n2cncc12` [Ff-111, (4-aminoimidazo[1,5-a]quinoxalin-8-yl)((4aS,9bS)-7-(trifluoromethyl)-3,4,4a,9b-tetrahydrobenzofuro[3,2-b]pyridin-1(2H)-yl)methanone], in data set [1] (HCT116 WT versus HCT116 MTAP-deleted), the EC50 selectivity is 258. In data set [1], this compound gave a pEC50 not below 9.00. The compound also showed a GI50 in data set [2] of 8 nM. Further, in data set [3], the half-life is 5.9 h, the clearance was 2.5 mL/min/kg and the Vd stood at 1.29 L/kg. At hERG ion channel, this compound gave a negative-log IC50 (pIC50) of 5.17.
